According to ChEMBL document CHEMBL1201861, “Genomics of Drug Sensitity in Cancer screening data, Wellcome Trust Sanger Institute”:

Legend:
Assay in all cases: cells
CTV-1 = assay type: functional, cell-based; details: Homo sapiens
Description: SANGER: Inhibition of human CTV-1 cell growth in a cell viability assay.

DB = assay type: functional, cell-based; details: Homo sapiens
Description: SANGER: Inhibition of human DB cell growth in a cell viability assay.

DOHH-2 = assay type: functional, cell-based; details: Homo sapiens
Description: SANGER: Inhibition of human DOHH-2 cell growth in a cell viability assay.

EFM-19 = assay type: functional, cell-based, Homo sapiens; details: Homo sapiens, EFM-19
Description: SANGER: Inhibition of human EFM-19 cell growth in a cell viability assay.

ES4 = assay type: functional, cell-based, Homo sapiens; details: Homo sapiens, ES4
Description: SANGER: Inhibition of human ES4 cell growth in a cell viability assay.

ES6 = assay type: functional, cell-based, Homo sapiens; details: Homo sapiens, ES6
Description: SANGER: Inhibition of human ES6 cell growth in a cell viability assay.

GI-1 = assay type: functional, cell-based, Homo sapiens; details: Homo sapiens, GI-1
Description: SANGER: Inhibition of human GI-1 cell growth in a cell viability assay.

HCC1569 = assay type: functional, cell-based, Homo sapiens; details: Homo sapiens, HCC1569
Description: SANGER: Inhibition of human HCC1569 cell growth in a cell viability assay.

HEL = assay type: functional, cell-based, Homo sapiens; details: Homo sapiens, HEL
Description: SANGER: Inhibition of human HEL cell growth in a cell viability assay.

HOP-92 = assay type: functional, cell-based, Homo sapiens; details: Homo sapiens, HOP-92
Description: SANGER: Inhibition of human HOP-92 cell growth in a cell viability assay.

HSC-2 = assay type: functional, cell-based, Homo sapiens; details: Homo sapiens, HSC-2
Description: SANGER: Inhibition of human HSC-2 cell growth in a cell viability assay.

HT = assay type: functional, cell-based; details: Homo sapiens
Description: SANGER: Inhibition of human HT cell growth in a cell viability assay.

HT-144 = assay type: functional, cell-based, Homo sapiens; details: Homo sapiens, HT-144
Description: SANGER: Inhibition of human HT-144 cell growth in a cell viability assay.

IA-LM = assay type: functional, cell-based, Homo sapiens; details: Homo sapiens, IA-LM
Description: SANGER: Inhibition of human IA-LM cell growth in a cell viability assay.

JEG-3 = assay type: functional, cell-based, Homo sapiens; details: Homo sapiens, JEG-3
Description: SANGER: Inhibition of human JEG-3 cell growth in a cell viability assay.

JVM-2 = assay type: functional, cell-based; details: Homo sapiens
Description: SANGER: Inhibition of human JVM-2 cell growth in a cell viability assay.

KARPAS-45 = assay type: functional, cell-based; details: Homo sapiens
Description: SANGER: Inhibition of human KARPAS-45 cell growth in a cell viability assay.

KURAMOCHI = assay type: functional, cell-based; details: Homo sapiens
Description: SANGER: Inhibition of human KURAMOCHI cell growth in a cell viability assay.

KYSE-150 cell line = assay type: functional, cell-based, Homo sapiens; details: Homo sapiens, KYSE-150
Description: SANGER: Inhibition of human KYSE-150 cell growth in a cell viability assay.

KYSE-410 = assay type: functional, cell-based, Homo sapiens; details: Homo sapiens, KYSE-410
Description: SANGER: Inhibition of human KYSE-410 cell growth in a cell viability assay.

LB2518-MEL = assay type: functional, cell-based, Homo sapiens; details: Homo sapiens, LB2518-MEL
Description: SANGER: Inhibition of human LB2518-MEL cell growth in a cell viability assay.

LCLC-97TM1 = assay type: functional, cell-based, Homo sapiens; details: Homo sapiens, LCLC-97TM1
Description: SANGER: Inhibition of human LCLC-97TM1 cell growth in a cell viability assay.

LS-411N = assay type: functional, cell-based, Homo sapiens; details: Homo sapiens, LS-411N
MFE-280 = assay type: functional, cell-based, Homo sapiens; details: Homo sapiens, MFE-280
Description: SANGER: Inhibition of human MFE-280 cell growth in a cell viability assay.

MFM-223 = assay type: functional, cell-based, Homo sapiens; details: Homo sapiens, MFM-223
Description: SANGER: Inhibition of human MFM-223 cell growth in a cell viability assay.

MN-60 = assay type: functional, cell-based; details: Homo sapiens
Description: SANGER: Inhibition of human MN-60 cell growth in a cell viability assay.

MZ1-PC = assay type: functional, cell-based, Homo sapiens; details: Homo sapiens, MZ1-PC
Description: SANGER: Inhibition of human MZ1-PC cell growth in a cell viability assay.

NCI-H1623 = assay type: functional, cell-based, Homo sapiens; details: Homo sapiens, NCI-H1623
Description: SANGER: Inhibition of human NCI-H1623 cell growth in a cell viability assay.

NCI-H1648 = assay type: functional, cell-based, Homo sapiens; details: Homo sapiens, NCI-H1648
Description: SANGER: Inhibition of human NCI-H1648 cell growth in a cell viability assay.

NCI-H1650 = assay type: functional, cell-based, Homo sapiens; details: Homo sapiens, NCI-H1650
Description: SANGER: Inhibition of human NCI-H1650 cell growth in a cell viability assay.

NCI-H2342 = assay type: functional, cell-based; details: Homo sapiens
Description: SANGER: Inhibition of human NCI-H2342 cell growth in a cell viability assay.

NCI-H441 = assay type: functional, cell-based; details: Homo sapiens
Description: SANGER: Inhibition of human NCI-H441 cell growth in a cell viability assay.

NCI-H446 = assay type: functional, cell-based; details: Homo sapiens
Description: SANGER: Inhibition of human NCI-H446 cell growth in a cell viability assay.

NCI-H720 = assay type: functional, cell-based; details: Homo sapiens
Description: SANGER: Inhibition of human NCI-H720 cell growth in a cell viability assay.

SNU-5 = assay type: functional, cell-based; details: Homo sapiens
Description: SANGER: Inhibition of human NCI-SNU-5 cell growth in a cell viability assay.

NMC-G1 = assay type: functional, cell-based, Homo sapiens; details: Homo sapiens, NMC-G1
Description: SANGER: Inhibition of human NMC-G1 cell growth in a cell viability assay.

OVCAR-4 = assay type: functional, cell-based, Homo sapiens; details: Homo sapiens, OVCAR-4
Description: SANGER: Inhibition of human OVCAR-4 cell growth in a cell viability assay.

PFSK-1 = assay type: functional, cell-based, Homo sapiens; details: Homo sapiens, PFSK-1
Description: SANGER: Inhibition of human PFSK-1 cell growth in a cell viability assay.

SBC-1 = assay type: functional, cell-based; details: Homo sapiens
Description: SANGER: Inhibition of human SBC-1 cell growth in a cell viability assay.

SK-LU-1 = assay type: functional, cell-based, Homo sapiens; details: Homo sapiens, SK-LU-1
Description: SANGER: Inhibition of human SK-LU-1 cell growth in a cell viability assay.

SK-MEL-30 = assay type: functional, cell-based; details: Homo sapiens
Description: SANGER: Inhibition of human SK-MEL-30 cell growth in a cell viability assay.

SNU-387 = assay type: functional, cell-based, Homo sapiens; details: Homo sapiens, SNU-387
Description: SANGER: Inhibition of human SNU-387 cell growth in a cell viability assay.

SW1417 = assay type: functional, cell-based, Homo sapiens; details: Homo sapiens, SW1417
Description: SANGER: Inhibition of human SW1417 cell growth in a cell viability assay.

SW626 = assay type: functional, cell-based, Homo sapiens; details: Homo sapiens, SW626
Description: SANGER: Inhibition of human SW626 cell growth in a cell viability assay.

SW837 = assay type: functional, cell-based, Homo sapiens; details: Homo sapiens, SW837
Description: SANGER: Inhibition of human SW837 cell growth in a cell viability assay.

SAOS-2 = assay type: functional, cell-based, Homo sapiens; details: Homo sapiens, SAOS-2
Description: SANGER: Inhibition of human Saos-2 cell growth in a cell viability assay.

8-MG-BA = assay type: functional, cell-based, Homo sapiens; details: Homo sapiens, 8-MG-BA
Description: SANGER: Inhibition of human 8-MG-BA cell growth in a cell viability assay.

8505C = assay type: functional, cell-based, Homo sapiens; details: Homo sapiens, 8505C
Description: SANGER: Inhibition of human 8505C cell growth in a cell viability assay.

A101D = assay type: functional, cell-based, Homo sapiens; details: Homo sapiens, A101D
Description: SANGER: Inhibition of human A101D cell growth in a cell viability assay.

ACHN = assay type: functional, cell-based, Homo sapiens; details: Homo sapiens, ACHN
Description: SANGER: Inhibition of human ACHN cell growth in a cell viability assay.

BT-20 = assay type: functional, cell-based, Homo sapiens; details: Homo sapiens, BT-20
Description: SANGER: Inhibition of human BT-20 cell growth in a cell viability assay.

U2OS = assay type: functional, cell-based, Homo sapiens, U-2-OS; details: Homo sapiens, U2OS
Description: SANGER: Inhibition of human U-2-OS cell growth in a cell viability assay.

VM-CUB-1 = assay type: functional, cell-based; details: Homo sapiens
Description: SANGER: Inhibition of human VM-CUB-1 cell growth in a cell viability assay.

## C=CCNC1=C2C[C@@H](C)C[C@H](OC)[C@H](O)[C@@H](C)/C=C(\C)[C@H](OC(N)=O)[C@@H](OC)/C=C\C=C(/C)C(=O)NC(=CC1=O)C2=O [TANESPIMYCIN]
CTV-1
  IC50: 527 nM
DB
  IC50: > 1000 nM
DOHH-2
  IC50: > 1000 nM
EFM-19
  IC50: 737 nM
ES4
  IC50: > 1000 nM
ES6
  IC50: > 1000 nM
GI-1
  IC50: 146 nM
HCC1569
  IC50: > 1000 nM
HEL
  IC50: > 1000 nM
HOP-92
  IC50: > 1000 nM
HSC-2
  IC50: 341 nM
HT
  IC50: > 1000 nM
HT-144
  IC50: 30.9 nM
IA-LM
  IC50: > 1000 nM
JEG-3
  IC50: 187 nM
JVM-2
  IC50: > 1000 nM
KARPAS-45
  IC50: 379 nM
KURAMOCHI
  IC50: 952 nM
KYSE-150 cell line
  IC50: 52.4 nM
KYSE-410
  IC50: 47.7 nM
LB2518-MEL
  IC50: 258 nM
LCLC-97TM1
  IC50: 87.3 nM
LS-411N
  IC50: 465 nM
MFE-280
  IC50: 213 nM
MFM-223
  IC50: 264 nM
MN-60
  IC50: > 1000 nM
MZ1-PC
  IC50: > 1000 nM
NCI-H1623
  IC50: > 1000 nM
NCI-H1648
  IC50: 152 nM
NCI-H1650
  IC50: 201 nM
NCI-H2342
  IC50: > 1000 nM
NCI-H441
  IC50: > 1000 nM
NCI-H446
  IC50: > 1000 nM
NCI-H720
  IC50: 25.5 nM
SNU-5
  IC50: 305 nM
NMC-G1
  IC50: 293 nM
OVCAR-4
  IC50: > 1000 nM
PFSK-1
  IC50: > 1000 nM
SBC-1
  IC50: 267 nM
SK-LU-1
  IC50: 30.8 nM
SK-MEL-30
  IC50: 912 nM
SNU-387
  IC50: > 1000 nM
SW1417
  IC50: > 1000 nM
SW626
  IC50: 335 nM
SW837
  IC50: > 1000 nM
SAOS-2
  IC50: 879 nM
8-MG-BA
  IC50: 94.7 nM
8505C
  IC50: 1000 nM
A101D
  IC50: 481 nM
ACHN
  IC50: 606 nM
BT-20
  IC50: > 1000 nM
U2OS
  IC50: 172 nM
VM-CUB-1
  IC50: 36.6 nM

## Cn1cncc1[C@@](N)(c1ccc(Cl)cc1)c1ccc2c(c1)c(-c1cccc(Cl)c1)cc(=O)n2C [TIPIFARNIB]
CTV-1
  IC50: 4580 nM
DB
  IC50: 10700 nM
DOHH-2
  IC50: 7910 nM
EFM-19
  IC50: 1750 nM
ES4
  IC50: 1280 nM
ES6
  IC50: 539 nM
GI-1
  IC50: 4420 nM
HCC1569
  IC50: 2580 nM
HEL
  IC50: 394 nM
HOP-92
  IC50: 9130 nM
HSC-2
  IC50: 5200 nM
HT
  IC50: 8290 nM
HT-144
  IC50: 1450 nM
IA-LM
  IC50: 47.5 nM
JEG-3
  IC50: 8610 nM
JVM-2
  IC50: > 16000 nM
KARPAS-45
  IC50: 12900 nM
KURAMOCHI
  IC50: 4780 nM
KYSE-150 cell line
  IC50: 6200 nM
KYSE-410
  IC50: 3500 nM
LB2518-MEL
  IC50: 2100 nM
LCLC-97TM1
  IC50: 2300 nM
LS-411N
  IC50: 1100 nM
MFE-280
  IC50: > 16000 nM
MFM-223
  IC50: > 16000 nM
MN-60
  IC50: > 16000 nM
MZ1-PC
  IC50: 2820 nM
NCI-H1623
  IC50: > 16000 nM
NCI-H1648
  IC50: 2560 nM
NCI-H1650
  IC50: > 16000 nM
NCI-H2342
  IC50: 380 nM
NCI-H441
  IC50: 13600 nM
NCI-H446
  IC50: > 16000 nM
NCI-H720
  IC50: > 16000 nM
SNU-5
  IC50: > 16000 nM
NMC-G1
  IC50: 425 nM
OVCAR-4
  IC50: 2210 nM
PFSK-1
  IC50: > 16000 nM
SBC-1
  IC50: > 16000 nM
SK-LU-1
  IC50: 3550 nM
SK-MEL-30
  IC50: 3740 nM
SNU-387
  IC50: 7060 nM
SW1417
  IC50: > 16000 nM
SW626
  IC50: 1370 nM
SW837
  IC50: 9890 nM
SAOS-2
  IC50: > 16000 nM
8-MG-BA
  IC50: 2130 nM
8505C
  IC50: 431 nM
A101D
  IC50: 1870 nM
ACHN
  IC50: 1120 nM
BT-20
  IC50: > 16000 nM
U2OS
  IC50: > 16000 nM
VM-CUB-1
  IC50: 5760 nM

## CCC1=C[C@@H]2CN(C1)Cc1c([nH]c3ccccc13)[C@@](C(=O)OC)(c1cc3c(cc1OC)N(C)[C@H]1[C@@](O)(C(=O)OC)[C@H](OC(C)=O)[C@]4(CC)C=CCN5CC[C@]31[C@@H]54)C2 [VINORELBINE]
CTV-1
  IC50: 5.01 nM
DB
  IC50: 19.4 nM
DOHH-2
  IC50: 5.04 nM
EFM-19
  IC50: 6.04 nM
ES4
  IC50: > 64 nM
ES6
  IC50: 42.4 nM
GI-1
  IC50: 3.54 nM
HCC1569
  IC50: 4.93 nM
HEL
  IC50: 38.3 nM
HOP-92
  IC50: 51.3 nM
HSC-2
  IC50: 2.25 nM
HT
  IC50: 21.6 nM
HT-144
  IC50: 0.591 nM
IA-LM
  IC50: 3.71 nM
JEG-3
  IC50: 14.1 nM
JVM-2
  IC50: > 64 nM
KARPAS-45
  IC50: 5.74 nM
KURAMOCHI
  IC50: 2.81 nM
KYSE-150 cell line
  IC50: 3.04 nM
KYSE-410
  IC50: 6.21 nM
LB2518-MEL
  IC50: > 64 nM
LCLC-97TM1
  IC50: 1.56 nM
LS-411N
  IC50: 3.17 nM
MFE-280
  IC50: > 64 nM
MFM-223
  IC50: > 64 nM
MN-60
  IC50: > 64 nM
MZ1-PC
  IC50: 17.7 nM
NCI-H1623
  IC50: 28.5 nM
NCI-H1648
  IC50: 3.92 nM
NCI-H1650
  IC50: 40.7 nM
NCI-H2342
  IC50: 4.78 nM
NCI-H441
  IC50: 33.1 nM
NCI-H446
  IC50: 14.8 nM
NCI-H720
  IC50: > 64 nM
SNU-5
  IC50: 45.8 nM
NMC-G1
  IC50: 14.9 nM
OVCAR-4
  IC50: 1.75 nM
PFSK-1
  IC50: 20.5 nM
SBC-1
  IC50: > 64 nM
SK-LU-1
  IC50: 51.8 nM
SK-MEL-30
  IC50: 12.4 nM
SNU-387
  IC50: 10.2 nM
SW1417
  IC50: > 64 nM
SW626
  IC50: 37.7 nM
SW837
  IC50: > 64 nM
SAOS-2
  IC50: > 64 nM
8-MG-BA
  IC50: 3.37 nM
8505C
  IC50: 4.42 nM
A101D
  IC50: 8.67 nM
ACHN
  IC50: 45.8 nM
BT-20
  IC50: 12.4 nM
U2OS
  IC50: > 64 nM
VM-CUB-1
  IC50: 19.1 nM
